Test results: US20260083687A1, “COMPOUNDS FOR REDUCING LACTATION AND IMPROVING HEALTH” (AHV International B.V., priority 2022, published 2026)

Key:
cows = assay: Administering of DPD at abrupt dry off and occurrence of mastitis / new intramammary infections, milk leakage, SCC (Example 10); assay type: in vivo, cow
Description: Study design. Cow description. 59 cows from 5 different farms were used for this study. The cows were randomly divided into 3 groups: • Control group; • DPD Treatment group 1: DC Liquid (500 mL) group (composition with 80 ml pure dipropyl disulfide); and • DPD Treatment group 2: DPD enriched onion Extract (OE) bolus (150 mL) group (corresponding to 80 ml pure dipropyl disulfide).
The control group consisted of 24 cows with an average milk production prior to dry off of 17.23 liters. […] The average lactation of the control group was 2.1 and they had on average a dry period of 48 days (10 animals in 1st lactation, 4 in 2nd lactation, 6 in 3th lactation and 4 in 4th lactation). 50% of all cows in the control group were observed leaking milk regardless of milk production prior to dry off, and the incidence goes up to 63% if the cows with production below or equal to 12.5 liters prior to dry off or discarded.
The DC Liquid treatment group consisted of 18 cows with an average mp prior to dry off of 21.61 liters (1 cow with a mp lower than 12.5 liters, lowest 11.40 liters and highest 32 liters). The average lactation of the DC Liquid group was 1.9 with 11 cows in 1st lactation, 2 cows in 2nd, 3 cows in 3th, and 2 cows in 5th lactation. The average dry period of this group was 49 days.
The DPD enriched OE bolus treatment group consisted of 17 cows with an average mp prior to dry off of 20.6 liters (lowest 13.8 and high 32 liters) and an average lactation of 2.2 (6 cows in 1 s lactation, 4 cows in 2nd, 4 cows in 3th, and 3 cows in 4th lactation). 1 cow dropped out during the dry period because of non-related lameness issues. The dry period of this group was on average 46 days.
After the last milking the cows received the dry off protocol according to the farms protocols. The DPD treatment groups received a DPD treatment in the form of a bolus dose by bolus shooter in the rumen. Both treatment groups consisted of treatment with 80 ml DPD. In all cases abrupt dry-off was applied, with no restriction in number of milking nor change of feed prior to dry-off. Before moving to the dry pen all cows underwent hoof trimming. During the dry period and after calving the cows were monitored for signs of mastitis. Before the cows were 30 days in lactation a SCC was determined to evaluate the dry period.
Intramammary infections (IMI) were defined as signs of a clinical mastitis (ao. Flocks, watery milk, coloring of milk) cases during the dry period and in the first 30 days in lactation or a rise in individual somatic cell count (ISCC) from before to after the dry period (threshold: 200,000 cells/mL) or both.

[1] = tested on: cows (Holstein Friesians); assay: Dose-response DPD treatment and milk yield (Example 2); assay type: in vivo, cow; settings: for Milk yield Last milking: before administration; for % reduction after 24 h / % reduction after 48 h / % reduction after 72 h / % reduction after 96 h: vs milk yield before treatment
Description: Study design. Twenty-seven cows (Holstein Friesians) from 2 farms were used. […] The cows were milked twice a day. The cows were housed in free stables.
[…] For each dosage 3 cows were used.

CCCSSCCC [DPD, di-n-propyl disulfide]
outcome of animals that entered the dry period diagnosed with an IMI (cows; 3 animals (2 DC Liquid, 1 DPD enriched OE)): all 3 recovered at the start of the new lactation
animals diagnosed with a new IMI after calving (cows; 80 ml DPD at abrupt dry off): 21%
cases with a decrease of SCC after calving (cows; 80 ml DPD at abrupt dry off): 61%
incidence of milk leakage (cows; 80 ml DPD at abrupt dry off, DPD treatment groups 1 and 2 combined): 17%
reduction of risk of new IMI (cows; DPD treated groups combined vs control group): 42%
reduction of incidence of milk leakage (cows; DPD treatment groups combined vs control group): 73%
cows with signs of mastitis (flocks in milk) (cows; after calving, DPD treatment group): 1 cow
cows with signs of clinical mastitis (cows; during the dry period, DPD treatment group): 1 cow
Average reduction 24 and 48 h (%) ([1]; 10 ml DPD): −3.3%
Milk yield After 24 h ([1]; 10 ml DPD): 14.45 kg
Milk yield After 48 h ([1]; 10 ml DPD): 13.98 kg
Milk yield After 72 h ([1]; 10 ml DPD): 12.99 kg
Milk yield After 96 h ([1]; 10 ml DPD): 13.78 kg
Milk yield Last milking ([1]; 10 ml DPD): 13.76 kg
% reduction after 24 h ([1]; 10 ml DPD): −5%
% reduction after 48 h ([1]; 10 ml DPD): −1.6%
% reduction after 72 h ([1]; 10 ml DPD): 5.6%
% reduction after 96 h ([1]; 10 ml DPD): 0%
Average reduction 24 and 48 h (%) ([1]; 20 ml DPD): 23%
Milk yield After 24 h ([1]; 20 ml DPD): 9.42 kg
Milk yield After 48 h ([1]; 20 ml DPD): 10.2 kg
Milk yield After 72 h ([1]; 20 ml DPD): 12.93 kg
Milk yield After 96 h ([1]; 20 ml DPD): 12.68 kg
effect on milk yield compared to the milk yield before treatment ([1]; 20 ml DPD): clear lowering on milk yield
Milk yield Last milking ([1]; 20 ml DPD): 12.72 kg
% reduction after 24 h ([1]; 20 ml DPD): 26%
% reduction after 48 h ([1]; 20 ml DPD): 20%
% reduction after 72 h ([1]; 20 ml DPD): −1.7%
% reduction after 96 h ([1]; 20 ml DPD): 0%
Average reduction 24 and 48 h (%) ([1]; 50 ml DPD): 33%
Milk yield After 24 h ([1]; 50 ml DPD): 10.03 kg
Milk yield After 48 h ([1]; 50 ml DPD): 8.38 kg
Milk yield After 72 h ([1]; 50 ml DPD): 14.16 kg
Milk yield After 96 h ([1]; 50 ml DPD): 13.68 kg
Milk yield Last milking ([1]; 50 ml DPD): 13.73 kg
% reduction after 24 h ([1]; 50 ml DPD): 27%
% reduction after 48 h ([1]; 50 ml DPD): 39%
% reduction after 72 h ([1]; 50 ml DPD): −3.1%
% reduction after 96 h ([1]; 50 ml DPD): 0%
Average reduction 24 and 48 h (%) ([1]; 80 ml DPD): 55%
Milk yield After 24 h ([1]; 80 ml DPD): 8.46 kg
Milk yield After 48 h ([1]; 80 ml DPD): 7.40 kg
Milk yield After 72 h ([1]; 80 ml DPD): 15.63 kg
Milk yield After 96 h ([1]; 80 ml DPD): 17.65 kg
Milk yield Last milking ([1]; 80 ml DPD): 17.63 kg
% reduction after 24 h ([1]; 80 ml DPD): 52%
% reduction after 48 h ([1]; 80 ml DPD): 58%
% reduction after 72 h ([1]; 80 ml DPD): 11.3%
% reduction after 96 h ([1]; 80 ml DPD): 0%
behavior of the cows ([1]; 80 ml or more DPD): became restless and showed a more active behavior
Average reduction 24 and 48 h (%) ([1]; 100 ml DPD): 51%
Milk yield After 24 h ([1]; 100 ml DPD): 8.12 kg
Milk yield After 48 h ([1]; 100 ml DPD): 8.44 kg
Milk yield After 72 h ([1]; 100 ml DPD): 13.33 kg
Milk yield After 96 h ([1]; 100 ml DPD): 16.55 kg
Milk yield Last milking ([1]; 100 ml DPD): 16.23 kg
% reduction after 24 h ([1]; 100 ml DPD): 50%
% reduction after 48 h ([1]; 100 ml DPD): 52%
% reduction after 72 h ([1]; 100 ml DPD): 17.9%
% reduction after 96 h ([1]; 100 ml DPD): −0.2%
Average reduction 24 and 48 h (%) ([1]; 150 ml DPD): 62%
Milk yield After 24 h ([1]; 150 ml DPD): 8.72 kg
Milk yield After 48 h ([1]; 150 ml DPD): 5.17 kg
Milk yield After 72 h ([1]; 150 ml DPD): 11.24 kg
Milk yield After 96 h ([1]; 150 ml DPD): 14.63 kg
Milk yield Last milking ([1]; 150 ml DPD): 14.78 kg
% reduction after 24 h ([1]; 150 ml DPD): 59%
% reduction after 48 h ([1]; 150 ml DPD): 65%
% reduction after 72 h ([1]; 150 ml DPD): 24%
% reduction after 96 h ([1]; 150 ml DPD): 0%
Average reduction 24 and 48 h (%) ([1]; 175 ml DPD): 55%
Milk yield After 24 h ([1]; 175 ml DPD): 8.44 kg
Milk yield After 48 h ([1]; 175 ml DPD): 8.75 kg
Milk yield After 72 h ([1]; 175 ml DPD): 13.24 kg
Milk yield Last milking ([1]; 175 ml DPD): 15.63 kg
% reduction after 24 h ([1]; 175 ml DPD): 54%
% reduction after 48 h ([1]; 175 ml DPD): 56%
% reduction after 72 h ([1]; 175 ml DPD): 15.3%
Average reduction 24 and 48 h (%) ([1]; 200 ml DPD): 52%
Milk yield After 24 h ([1]; 200 ml DPD): 11.29 kg
Milk yield After 48 h ([1]; 200 ml DPD): 10.87 kg
Milk yield After 72 h ([1]; 200 ml DPD): 13.56 kg
Milk yield Last milking ([1]; 200 ml DPD): 21.31 kg
% reduction after 24 h ([1]; 200 ml DPD): 53%
% reduction after 48 h ([1]; 200 ml DPD): 51%
% reduction after 72 h ([1]; 200 ml DPD): 36.4%
behavior and eating behavior of the cows ([1]; after DPD administration): relaxed and quiet behavior and no change in eating behavior was observed
adverse effects ([1]; dose of 200 grams administered to a cow): without demonstrating any adverse effects
effect on milk yield ([1]; more than 80 ml DPD): no further decrease of milk yield was observed
behavior of the cows ([1]; more than 100 ml DPD): looked like to become more active
dosage at which the milk yield decrease became visible ([1]; single oral dose): ≥ 20 mL
dosage giving maximum response (milk yield decrease) ([1]; single oral dose): ≥ 80 mL
duration of the effect of DPD on milk yield ([1]; single oral dose): disappears on the 3rd and 4th day after treatment
behavior of the cows ([1]; until 80 ml DPD): no undesired behavior of the cows was observed
